According to patent US9848599B2, “Co-crystals of 3-iodopropynyl butylcarbamate” (priority 2012, dated 2017):

Assay: Thermal stability compared with IPBC
Assay type: physicochemical

Compound	thermal stability compared with IPBC
CCCCNC(=O)OCC#CI.CCCCNC(=O)OCC#CI.c1cc(-c2ccncc2)ccn1 [Co-Crystal 2, Co-Crystal Containing 3-iodopropynyl butylcarbamate and 4,4′-bipyridine in a 2:1 Molar Ratio]	higher thermal stability
Co-Crystal Containing 3-iodopropynyl butylcarbamate and N,N′-bis(4-pyridylcarbonyl)-1,6-hexanediamine in a 2:1 Molar Ratio [Co-Crystal 5]	higher thermal stability
Co-crystal containing 3-iodopropynyl butylcarbamate and 4-[2-(4-pyridinyl)ethyl]pyridine in a 2:1 Molar Ratio [Co-Crystal 1]	higher thermal stability
